Molecular target: T1, human recombinant ALK1 (GST fused to ALK1 intracellular domain [His142-Gln503]) (Homo sapiens, UniProt P37023)
T1 construct: GST fused to ALK1 intracellular domain [His142-Gln503]; made in house
T1 sequence (P37023 142-503): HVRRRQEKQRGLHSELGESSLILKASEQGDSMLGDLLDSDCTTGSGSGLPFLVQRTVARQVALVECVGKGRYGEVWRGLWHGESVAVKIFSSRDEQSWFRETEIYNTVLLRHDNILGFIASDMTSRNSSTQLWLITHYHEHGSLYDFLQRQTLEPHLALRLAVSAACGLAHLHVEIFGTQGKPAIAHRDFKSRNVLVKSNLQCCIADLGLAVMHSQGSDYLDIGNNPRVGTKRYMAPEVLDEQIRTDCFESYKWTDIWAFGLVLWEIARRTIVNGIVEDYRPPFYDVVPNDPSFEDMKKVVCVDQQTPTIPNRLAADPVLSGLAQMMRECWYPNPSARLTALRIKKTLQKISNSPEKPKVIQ
Experiment: ALK1-Kinase Flashplate-Assay
Assay type: biochemical
Conditions: 0.5 μM ATP, biotinylated α-casein substrate; read-out: Assay 1 (ALK1-Kinase Flashplate-Assay IC50 class)
Text: Biological Assay 1: ALK1-Kinase Flashplate-Assay
ALK1 phosphorylates serine/threonine residues of the biotinylated substrate bovine α-casein in the presence of [γ-^33P]ATP. Detection of the radiolabeled phosphorylated product is achieved by binding to streptavidine-coated Flashplates. The biotin moieties of biotinylated casein bind with high affinity to the streptavidine. The radiolabeled biotinylated casein produced by the ALK1 kinase reaction is able to generate a […] signal when strepatavidine-mediated binding occurs to the scintillant-containing surface of the Flashplates due to the close proximity of the radiolabel and the scintillant. […] The signals obtained are therefore indicative of the ALK1 kinase activity. Measurement is performed in a Perkin-Elmer TopCount or Perkin-Elmer ViewLux instrument.
Enzyme: Purified human recombinant ALK1 (GST fused to ALK1 intracellular domain [His142-Gln503]) produced in-house, aliquots stored at −80° C.;
Diluted enzyme working solution: 2.5 ng/μl ALK1 (in assay buffer) freshly prepared and chilled on ice until use.
Substrate: biotinylated bovine α-casein. Unbiotinylated casein obtained from Sigma was biotinylated by standard procedures using N-hydroxysuccinimide (NHS) ester of biotin.
Substrate working solution: 0.83 μM ATP, 1.67 μM biotinylated a-casein, 7.4 nCi [γ-^33P]ATP/μl in assay buffer
Assay plates: 384-well plates, small volume, white, Greiner (# 784075)
Flashplates: Streptavidin-coated Flashplates, Perkin Elmer (384-well # SPM410A)
Assay buffer: 50 mM Tris/HCl pH 8.0, 1 mM MnCl2, 1 mM DTT, 0.01% NP40, 0.5× Complete EDTA-free
Stop solution: 33.3 μM ATP, 33.3 mM EDTA, 0.07% Triton X-100 in PBS
Saturating buffer for Flashplates: 100 μM ATP, 0.2% Triton X-100 in PBS
Sealing tape: Greiner (# 676080)
Protocol for small volume 5 μl assay (all steps are performed at 20° C., pipetted with CyBi-Well and Multidrop Micro): • 1. 50 nl or 250 nl compound in 100% DMSO • 2. addition of 3 μl substrate working solution with CyBi-Well pipettor • 3. addition of 2 μl enzyme working solution with Multidrop Micro incubation for 60 min at room temperature • 4. addition of 15 μl Stop solution with CyBi-Well pipettor • 5. transfer of 18 μl assay mixture to Flashplates** with CyBi-Well pipettor incubation for at least 3 h at room temperature or over night at 4° C. to allow binding to the streptavidine-coated Flashplates • 6. washing the Flashplates 3 times with 50 μl PBS without Ca++ and Mg++ • 7. sealing with sealing tape • 8. Measurement in Topcount (60 sec/well) **Saturation of Flashplates: The Flashplates are preincubated for at least 1 hour with 50 μl saturating buffer. Remove 18 μl from the 50 μl and transfer 18 μl of the assay mixture to the Flashplate.
Final concentrations, calculated for 5 μl reaction volume: ALK1 5 ng/well; 1 μM biotinylated α-casein; 0.5 μM ATP; 22 nCi/well [γ-^33P]ATP; 1 mM MnCl2; 1 mM DTT; 50 mM Tris-HCl; pH 8.0; 0.01% NP40; 0.5× Complete EDTA-free; 1% or 5% DMSO.
The data were normalised (enzyme reaction without inhibitor=0% inhibition, enzyme reaction in the presence of 10 mM EDTA=100% inhibition) and IC50 values were calculated by a 4 parameter fit using an in-house software.

| Structure (SMILES) | IC50 [µM] |
| --- | --- |
| COc1cncc(-c2cnn3ccc(Nc4ccccc4)nc23)c1 [Example 251, [3-(5-Methoxy-pyridin-3-yl)-pyrazolo[1,5-a]pyrimidin-5-yl]-phenyl-amine] | 1 to 10 |
| COc1cc(-c2cnn3ccc(NCCN(C)C)nc23)cc(OC)c1OC [Example 134, N,N-Dimethyl-N-[3-(3,4,5-trimethoxy-phenyl)-pyrazolo[1,5-a]pyrimidin-5-yl]-ethane-1,2-diamine] | 1 to 10 |
| CC(C)c1ccc(Nc2ccn3ncc(-c4cccc(C(=O)NCCN(C)C)c4)c3n2)cc1 [Example 1, N-(2-dimethylamino-ethyl)-3-[5-(4-isopropyl-phenylamino)-pyrazolo[1,5-a]pyrimidin-3-yl]-benzamide] | < 1 |
| Cc1ccc(Nc2ccn3ncc(-c4ccc(O)cc4)c3n2)cc1NS(C)(=O)=O [Example 60, N-{5-[3-(4-Hydroxy-phenyl)-pyrazolo[1,5-a]pyrimidin-5-ylamino]-2-methyl-phenyl}-methanesulfonamide] | < 1 |
| COc1ccccc1-c1cnn2ccc(Nc3ccc(O)cc3)nc12 [Example 84, 4-[3-(2-Methoxy-phenyl)-pyrazolo[1,5-a]pyrimidin-5-ylamino]-phenol] | 1 to 10 |
| c1cncc(CNc2ccn3ncc(-c4cccc5ccccc45)c3n2)c1 [Example 377, (3-Naphthalen-1-yl-pyrazolo[1,5-a]pyrimidin-5-yl)-pyridin-3-ylmethyl-amine] | < 1 |
| OC1CCC(Nc2ccn3ncc(-c4ccc(F)cc4)c3n2)CC1 (stereo not drawn) [Example 401, 4-[3-(4-Fluoro-phenyl)-pyrazolo[1,5-a]pyrimidin-5-ylamino]-cyclohexanol] | 1 to 10 |
| COc1cc(-c2cnn3ccc(Nc4ccc(C)c(NS(C)(=O)=O)c4)nc23)ccc1O [Example 151] | < 1 |
| COc1cc(-c2cnn3ccc(NCCO)nc23)ccc1O [Example 165, 4-[5-(2-Hydroxy-ethylamino)-pyrazolo[1,5-a]pyrimidin-3-yl]-2-methoxy-phenol] | < 1 |
| COc1ccc(-c2cnn3ccc(Nc4ccc(NS(=O)(=O)c5ccc(C)cc5)cc4)nc23)cc1OC [Example 56, N-{4-[3-(3,4-Dimethoxy-phenyl)-pyrazolo[1,5-a]pyrimidin-5-ylamino]-phenyl}-4-methyl-benzenesulfonamide] | < 1 |
| CC(=O)Nc1cccc(-c2cnn3ccc(Nc4ccc(O)cc4)nc23)c1 [Example 50, N-{3-[5-(4-Hydroxy-phenylamino)-pyrazolo[1,5-a]pyrimidin-3-yl]-phenyl}-acetamide] | < 1 |
| Cc1ccc(Nc2ccn3ncc(-c4cccc(NS(C)(=O)=O)c4)c3n2)cc1NS(C)(=O)=O [Example 209, N-{5-[3-(3-Methanesulfonylamino-phenyl)-pyrazolo[1,5-a]pyrimidin-5-ylamino]-2-methyl-phenyl]-methanesulfonamide] | < 1 |
| Clc1cccc(-c2cnn3ccc(NCc4cccnc4)nc23)c1 [Example 402, [3-(3-Chloro-phenyl)-pyrazolo[1,5-a]pyrimidin-5-yl]-pyridin-3-ylmethyl-amine] | 1 to 10 |
| COc1cc(Nc2ccn3ncc(-c4cnn(C)c4)c3n2)cc(OC)c1OC [Example 182, [3-(1-Methyl-1H-pyrazol-4-yl)-pyrazolo[1,5-a]pyrimidin-5-yl]-(3,4,5-trimethoxy-phenyl)-amine] | 1 to 10 |
| Oc1cccc(-c2cnn3ccc(NC4CCC(O)CC4)nc23)c1 (stereo not drawn) [Example 156, 3-[5-(4-Hydroxy-cyclohexylamino)-pyrazolo[1,5-a]pyrimidin-3-yl]-phenol] | < 1 |
| COc1cc(-c2cnn3ccc(Nc4ccc(C(C)C)cc4)nc23)ccc1O [Example 277, 4-[5-(4-Isopropyl-phenylamino)-pyrazolo[1,5-a]pyrimidin-3-yl]-2-methoxy-phenol] | < 1 |
| Cn1cc(-c2cnn3ccc(NCc4cccnc4)nc23)cn1 [Example 230, [3-(1-Methyl-1H-pyrazol-4-yl)-pyrazolo[1,5-a]pyrimidin-5-yl]-pyridin-3-ylmethyl-amine] | 1 to 10 |
| COc1cccc(-c2cnn3ccc(Nc4cccc(Cl)c4)nc23)c1 [Example 444, (3-Chloro-phenyl)-[3-(3-methoxy-phenyl)-pyrazolo[1,5-a]pyrimidin-5-yl]-amine] | 1 to 10 |
| COc1ccc(Nc2ccn3ncc(-c4cnn(Cc5ccccc5)c4)c3n2)cn1 [Example 199, [3-(1-Benzyl-1H-pyrazol-4-yl)-pyrazolo[1,5-a]pyrimidin-5-yl]-(6-methoxy-pyridin-3-yl)-amine] | 1 to 10 |
| O=C(O)c1ccc(-c2cnn3ccc(Nc4ccccc4)nc23)cc1 [Example 248, 4-(5-Phenylamino-pyrazolo[1,5-a]pyrimidin-3-yl)-benzoic acid] | 1 to 10 |
| CS(=O)(=O)Nc1cccc(-c2cnn3ccc(Nc4ccc(Oc5ccccc5)cc4)nc23)c1 [Example 42, N-{3-[5-(4-Phenoxy-phenylamino)-pyrazolo[1,5-a]pyrimidin-3-yl]-phenyl}-methanesulfonamide] | 1 to 10 |
| CC(=O)Nc1cccc(-c2cnn3ccc(Nc4ccc5[nH]ccc5c4)nc23)c1 [Example 19, N-{3-[5-(1H-Indol-5-ylamino)-pyrazolo[1,5-a]pyrimidin-3-yl]-phenyl}-acetamide] | < 1 |
| Fc1ccc(-c2cnn3ccc(NCc4ccncc4)nc23)cc1 [Example 398, [3-(4-Fluoro-phenyl)-pyrazolo[1,5-a]pyrimidin-5-yl]-pyridin-4-ylmethyl-amine] | < 1 |
| COc1cc(Nc2ccn3ncc(-c4cccc(C(N)=O)c4)c3n2)cc(OC)c1OC [Example 176, 3-[5-(3,4,5-Trimethoxy-phenylamino)-pyrazolo[1,5-a]pyrimidin-3-yl]-benzamide] | 1 to 10 |
| Cc1ccc(S(=O)(=O)Nc2ccc(Nc3ccn4ncc(-c5cccnc5)c4n3)cc2)cc1 [Example 52, 4-Methyl-N-[4-(3-pyridin-3-yl-pyrazolo[1,5-a]pyrimidin-5-ylamino)-phenyl]-benzenesulfonamide] | < 1 |
| CS(=O)(=O)Nc1cccc(-c2cnn3ccc(Nc4ccccc4)nc23)c1 [Example 243, N-[3-(5-Phenylamino-pyrazolo[1,5-a]pyrimidin-3-yl)-phenyl]-methanesulfonamide] | < 1 |
| COc1ccc(-c2cnn3ccc(Nc4ccc(O)cc4)nc23)cc1 [Example 146, 4-[3-(4-Methoxy-phenyl)-pyrazolo[1,5-a]pyrimidin-5-ylamino]-phenol] | 1 to 10 |
| COc1cccc(-c2cnn3ccc(Nc4ccccc4)nc23)c1 [Example 241, [3-(3-Methoxy-phenyl)-pyrazolo[1,5-a]pyrimidin-5-yl]-phenyl-amine] | 1 to 10 |
| COc1ccc(Nc2ccn3ncc(-c4cc(OC)c(OC)c(OC)c4)c3n2)cn1 [Example 90, (6-Methoxy-pyridin-3-yl)-[3-(3,4,5-trimethoxy-phenyl)-pyrazolo[1,5-a]pyrimidin-5-yl]-amine] | < 1 |
| COc1ccc(-c2cnn3ccc(NCCO)nc23)cn1 [Example 164, 2-[3-(6-Methoxy-pyridin-3-yl)-pyrazolo[1,5-a]pyrimidin-5-ylamino]-ethanol] | 1 to 10 |

Source: US20080039455A1, “PYRAZOLOPYRIMIDINES AND SALTS THEREOF, PHARMACEUTICAL COMPOSITIONS COMPRISING SAME, METHODS OF PREPARING SAME AND USES OF SAME” (priority 2006, published 2008)
